From PubChem BioAssay (NCI)
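The compound was tested at five concentrations on cells cultured in 96-well plates, with a 48-hour exposure period. GI50 is the concentration that inhibits growth by half. The concentration for full growth arrest is given as TGI.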

Tests used:
Assay in all cases: inhibition of tumour cell growth, NCI panel, 48 h
KM12 colon = tested on: KM12 colon
SR leukemia = tested on: SR leukemia
NCI/ADR-RES ovarian = tested on: NCI/ADR-RES ovarian
SW-620 colon = tested on: SW-620 colon
M14 melanoma = tested on: M14 melanoma
K-562 leukemia = tested on: K-562 leukemia
HCT-15 colon = tested on: HCT-15 colon
MOLT-4 leukemia = tested on: MOLT-4 leukemia
A549 NSCLC = tested on: A549 NSCLC
UACC-257 melanoma = tested on: UACC-257 melanoma

| Structure (SMILES) | GI50 (KM12 colon) [µM] | TGI (KM12 colon) [µM] | GI50 (SR leukemia) [µM] | TGI (SR leukemia) [µM] | GI50 (NCI/ADR-RES ovarian) [µM] | TGI (NCI/ADR-RES ovarian) [µM] | GI50 (SW-620 colon) [µM] | TGI (SW-620 colon) [µM] | GI50 (M14 melanoma) [µM] | TGI (M14 melanoma) [µM] | GI50 (K-562 leukemia) [µM] | TGI (K-562 leukemia) [µM] | GI50 (HCT-15 colon) [µM] | TGI (HCT-15 colon) [µM] | GI50 (MOLT-4 leukemia) [µM] | TGI (MOLT-4 leukemia) [µM] | GI50 (A549 NSCLC) [µM] | TGI (A549 NSCLC) [µM] | TGI (UACC-257 melanoma) [µM] | GI50 (UACC-257 melanoma) [µM] |
| --- | --- | --- | --- | --- | --- | --- | --- | --- | --- | --- | --- | --- | --- | --- | --- | --- | --- | --- | --- | --- |
| O=C1c2ccccc2-c2c1c1ccc([N+](=O)[O-])cc1c(=O)n2CCN1CCOCC1 | > 100 | > 100 | 15.5 | > 100 | > 100 | > 100 | 40.5 | > 100 | > 100 | > 100 | > 100 | > 100 | > 100 | > 100 | 48.8 | > 100 | > 100 | > 100 |  |  |
| CCOc1cc(CCNC)c2c(ccc3ccc(OC)c(O)c32)c1OC |  | 26.4 |  | 20.5 |  | 48.2 |  |  |  | 28.5 |  | > 100 |  | 35.7 |  | 26.4 |  | 39.6 | 29.6 |  |
| COC(=O)C1OC(SCCN)C(O)C(O)C1O (stereo unspecified) |  | > 100 |  | > 100 |  | > 100 |  | > 100 |  | > 100 |  | > 100 |  | > 100 |  | > 100 |  | > 100 | > 100 |  |
| Cn1c(=S)c2[nH]c(SCc3cccnc3)nc2n(C)c1=O |  | > 100 |  | > 100 |  | > 100 |  | > 100 |  | > 100 |  | > 100 |  | > 100 |  | > 100 |  | > 100 | > 100 |  |
| O=C1Nc2cc(-c3ccc(O)cc3)ccc2/C1=C/c1ccc[nH]1 | 0.247 | > 100 | 0.0309 | > 33.7 | 0.251 | > 100 | 0.0746 | > 100 | 0.0974 | > 100 | 0.0335 | > 75.9 | 0.0451 | > 35.3 | 0.158 | > 32.5 | 0.484 | > 100 | > 100 | 0.743 |
| Cn1c(=O)c2[nH]c(CCS)nc2n(C)c1=O |  | > 100 |  | > 100 |  | > 100 |  | > 100 |  | > 100 |  | > 100 |  | > 100 |  | > 100 |  | > 100 | > 100 |  |
| CCN(CC)CCOc1ccccc1-n1c(C)ccc1-c1ccccc1 | 17.2 | 32.5 |  |  | 13.9 | 29.9 | 15.2 | 31.8 | 17 | 34.2 | 10.7 | 32 | 12.6 | 28.2 | 13.9 | 33.3 | 16.3 | 32.1 | 31.8 | 16.2 |
| COc1ccc(-c2cncn2-c2ccc(-c3nc4cc(OC)c(OC)c(OC)c4s3)cc2)cc1N | 3.8 | > 100 | 3.43 | > 100 | 3.12 | > 100 | 6.21 | > 100 | 5.91 | > 100 | 3.38 | > 100 | 4.02 | > 100 | 4 | > 100 | 5.77 | > 100 | > 100 | > 100 |
| Cc1cc(O)cc(-c2nn(C)cc2-c2cc(N3CCOCC3)nc(-c3cccnc3)n2)c1 | 3.23 | 20.7 | 1.22 | > 100 | 3.43 | 33 | 8.14 | 48.1 | 3.55 | 15.8 | 1.96 | > 100 | 2.63 | 23.4 | 3.65 | > 100 | 6.54 | > 100 | 35.4 | 13.4 |
| N#CC1=C(N)Oc2c(ccc3cccnc23)C1c1ccccc1 (stereo unspecified) |  | 17.1 |  | 29 | 0.464 | 12.4 |  | > 100 |  | > 41.5 |  | > 100 |  | > 100 |  | 36.9 |  | > 100 | > 79.4 |  |
| COc1ccc(C#CC2=C(Br)C(=O)OC2)cc1 | 3.05 | 11 | 2.63 | > 50 | 12 | 33.6 | 1.23 | 4.54 | 10.5 | 34 | 4.77 | > 50 | 2.63 | 11.3 | 4.44 | > 50 | 9.43 | 28.6 | 26.4 | 11.9 |
| O=CCC(O)C(O)C(O)CO (stereo unspecified) | > 100 | > 100 | > 100 | > 100 | > 100 | > 100 | > 100 | > 100 | > 100 | > 100 | > 100 | > 100 | > 100 | > 100 | > 100 | > 100 | > 100 | > 100 | > 100 | 55.6 |
| CSc1ccc(NC(=O)CCl)cc1 |  | > 10 |  | > 10 |  | > 10 |  | > 10 |  | 3.73 |  | > 10 |  | > 10 |  | > 10 |  | 5.79 | > 10 |  |
| COc1ncc(-c2ccc3ncnc(Nc4cccc(Cl)c4)c3c2)cc1NS(C)(=O)=O | 3.55 | 16.1 | 3.91 | > 100 | 2.38 | 29.1 | 3.22 | 17.7 | 2.81 | 19.2 | 4.51 | 85.3 | 1.66 | 13.2 | 1.49 | 5.21 | 1.2 | 13.2 |  |  |
| COc1ccc(OC)c(-c2nc3sc(C)cn3c2/C=C2\C(=O)N(C)c3ccccc32)c1 | 21.9 | 68.5 | 1.89 | 18.5 | 15.7 | 54.7 | 35.6 | > 100 | 25.4 | 80.3 | 5.98 | 71.1 | 19.8 | 81.6 | 15.9 | 59 | 28.4 | > 100 | 82.6 | 29.5 |
| CC(=O)OCCC/C(=C/c1cc2ccccc2c2ccccc12)[N+](=O)[O-] | 1.56 | 2.89 | 0.495 | 4.58 | 1.99 | 4.31 | 1.49 | 2.81 | 1.56 | 2.9 | 1.7 | 6.87 | 1.3 | 2.62 | 2.86 | > 23 | 1.84 | 3.74 | 2.76 | 1.43 |
| NC(=O)/C=C/c1c[nH]c2nccnc12 |  | > 46.3 |  | > 100 |  | > 29.1 |  | 10.5 |  | 30.5 |  | > 18 |  | 55.7 |  | 1.38 |  | > 100 | 52.8 |  |
| O=C(/C=C/c1cc(O)ccc1O)c1ccc(Cl)cc1 | 31.8 | > 100 |  |  | 19.6 | 53.9 | 61.9 | > 100 | 19.8 | 47.1 | 46.1 | > 100 | 28 | > 100 | > 100 | > 100 | 31.8 | > 100 | > 100 | 51.3 |
| C=CC(=O)N1CCC(CNc2ncnc(N)c2-c2ccc(Oc3ccccc3)cc2)CC1 | 28.7 | > 100 |  |  | 24.6 | 79.4 | 33.5 | > 100 | 31.6 | > 100 | 22.5 | > 100 | 26.6 | > 100 | 18.6 | 66 | 34.3 | > 100 | > 100 | 38.5 |
| CCOC(=O)CC1C(CNC(=O)NC)OC(n2cnc3c(NC(=O)Nc4ccccc4)ncnc32)C1O[Si](C)(C)C(C)(C)C (stereo unspecified) | 3.95 | 20.9 | 2.23 | 7.07 | > 100 | > 100 | 4.8 | 28.4 | 2.51 | 11.6 | 3.59 | 32.9 | 8.5 | > 100 | 2.39 | 23.3 | 4.18 | 19.2 | > 100 | 5.68 |
| CCN1C(=O)N[C@H]2[C@@H]3NC(=O)c4ccc(Cl)n4[C@@H]3C[C@]21O | 1.06 | 33.7 | 0.257 | 0.983 | 12 | 89.8 | 0.511 | > 100 | 0.352 | 2.66 | 0.363 | 5.09 | 1.66 | 15.6 | 0.346 | 2.37 | 1.74 | 17.6 |  |  |
| COc1ccccc1N1CCN(CC(O)Cn2c(=O)c3c(OC)nc(C)cc3c(=O)n2-c2ccccc2)CC1 (stereo unspecified) | > 100 | > 100 | > 100 | > 100 | 87.9 | > 100 | > 100 | > 100 | > 100 | > 100 | > 100 | > 100 | > 100 | > 100 | > 100 | > 100 | > 100 | > 100 |  |  |
| Clc1ccc2c(NCCNc3nc(N4CCCCC4)nc4ccccc34)ccnc2c1 | 3.39 | 12.7 | 1.23 | 4.53 | 3.5 | > 100 | 1.34 | 3.33 | 1.82 | 3.61 |  |  | 1.26 | 3.93 | 2.29 | 11.8 | 2.16 | 9.87 | 3.77 | 1.94 |
| Cc1ccc(Nn2c(SCC(=O)Nc3nc(-c4ccccc4)cs3)nc(C)c2C)cc1 | 4.13 | 19.1 |  |  | 3.04 | 22.2 | 8.3 | > 100 | 3.7 | 48.6 | 3.62 | > 100 | 5.17 | > 100 | 3.46 | > 100 | 3.03 | > 100 | 9.29 | 2.12 |
| Nc1nc(N)c2cc(S(=O)(=O)c3ccccc3)ccc2n1 | 4.23 | > 100 |  |  | 3.52 | > 100 | 0.512 | > 100 | 0.506 | > 100 | 0.339 | > 100 | 1.75 | > 100 | 4.31 | > 100 | 0.622 | > 100 | > 100 | 14.9 |
| CCC1C[N+]2=C(c3cc(OC)c(OC)cc3CC2)c2c1cc1n2CCc2cc(OC)c(OC)cc2-1 (stereo unspecified) | 1.5 | 10.9 | 3.1 | > 100 | 64.3 | > 100 | 4.25 | 16.8 | 3.66 | 14.6 | 1.95 | 20.8 | 14 | 34.7 | 3.97 | 23.6 | 11.8 | > 100 |  |  |
| COc1ccc(-n2nc(C(=O)NCC(=O)Nc3nc4cc(OC)ccc4s3)c3ccccc3c2=O)cc1 |  |  | > 20.5 | > 100 | 1.35 |  | 0.66 | > 100 | 2.37 | > 42.9 | > 37.7 | > 100 | > 24 | > 100 | > 100 | > 100 | 0.349 | 1.51 | 5.07 | 1.28 |
| COc1cc2c3c(n(CCCN=[N+]=[N-])c(=O)c2cc1OC)-c1ccc(NC(C)=O)cc1C3=O | > 50 | > 50 | 4.85 | > 50 | > 50 | > 50 | > 50 | > 50 | > 50 | > 50 | > 50 | > 50 | > 50 | > 50 |  |  | > 50 | > 50 | > 50 | > 50 |
| CN1CCC(n2cnc(-c3ccc(F)cc3)c2-c2ccnc(Nc3ccccc3)n2)CC1 | 8.11 | > 25 |  |  | 7.65 | > 25 | 7.88 | > 25 | 5.58 | 14.7 | 5.94 | > 25 | 6.22 | > 25 | 12 | > 25 | 2.81 | > 25 | 9.25 | 4.22 |
